# Results published in US12435044B2, “Pyridazinone herbicides and pyridazinone intermediates used to prepare a herbicide” (FMC Corporation, priority 2018, dated 2025).
# Key:
# Assay type in all cases: in vivo
# [1] = test system: foxtail, giant (Setaria faberii); assay: Test A pre-/postemergence greenhouse test
# Excerpt: (§1) Seeds of plant species selected from barnyardgrass (Echinochloa crus-galli), kochia (Kochia scoparia), ragweed (common ragweed, Ambrosia elatior), ryegrass, Italian (Lolium multiflorum), foxtail, giant (Setaria faberii), foxtail, green (Setaria viridis) and pigweed (Amaranthus retroflexus) were planted into a blend of loam soil and sand and treated preemergence with a directed soil spray using test chemicals formulated in a non-phytotoxic solvent mixture which included a surfactant.
# (§2) At the same time, plants selected from these weed species and also wheat (Triticum aestivum), corn (Zea mays), blackgrass (Alopecurus myosuroides) and galium (catchweed bedstraw, Galium aparine) were planted in pots containing the same blend of loam soil and sand and treated with postemergence applications of test chemicals formulated in the same manner. Plants ranged in height from 2 to 10 cm and were in the one- to two-leaf stage for the postemergence treatment. Treated plants and untreated controls were maintained in a greenhouse for approximately 10 d, after which time all treated plants were compared to untreated controls and visually evaluated for injury. Plant response ratings, summarized in Table A, are based on a 0 to 100 scale where 0 is no effect and 100 is complete control. A dash (-) response means no test result.
# [2] = test system: nutsedge, yellow (Cyperus esculentus); assay: Test C pre-/postemergence greenhouse test; conditions: scale 0 to 100
# In short: (§3)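 Test chemicals were formulated in a non-phytotoxic solvent mixture with surfactant and applied preemergence to seeds in silt loam soil or postemergence to plants of 2 to 18 cm in a peat/vermiculite medium. After 13 to 21 d in a greenhouse, response was visually scored from 0 (no effect) to 100 (complete control).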
# [3] = test system: galium (catchweed bedstraw, Galium aparine); assay: Test C pre-/postemergence greenhouse test; conditions: scale 0 to 100
# In short: as §3
# [4] = test system: velvetleaf (Abutilon theophrasti); assay: Test C pre-/postemergence greenhouse test; conditions: scale 0 to 100
# In short: as §3
# [5] = test system: barnyardgrass (Echinochloa crus-galli); assay: Test C pre-/postemergence greenhouse test; conditions: scale 0 to 100
# In short: as §3
# [6] = test system: blackgrass (Alopecurus myosuroides); assay: Test A postemergence greenhouse test
# Excerpt: as §1, §2
# [7] = test system: wheat (Triticum aestivum); assay: Test A postemergence greenhouse test
# Excerpt: as §1, §2
# [8] = test system: galium (catchweed bedstraw, Galium aparine); assay: Test A postemergence greenhouse test
# Excerpt: as §1, §2
# [9] = test system: corn (Zea mays); assay: Test A postemergence greenhouse test
# Excerpt: as §1, §2
# [10] = test system: foxtail, green (Setaria viridis); assay: Test A pre-/postemergence greenhouse test
# Excerpt: as §1, §2
# [11] = test system: poinsettia, wild (Euphorbia heterophylla); assay: Test C pre-/postemergence greenhouse test; conditions: Preemergence, scale 0 to 100
# In short: as §3
structure (smiles),measurement,setting,value
"Cc1ccc2ccc(C)c(-c3c(O)c(Cl)nn(C)c3=O)c2c1 [Cpd. No. 20, 6-chloro-4-(2,7-dimethyl-1-naphthalenyl)-5-hydroxy-2-methyl-3(2H)-pyridazinone]",Plant response rating (0 to 100 scale),"[1]; Postemergence, 31 g ai/ha",80
same,Plant response rating (0 to 100 scale),"[1]; Postemergence, 125 g ai/ha",100
same,Plant response rating (0 to 100 scale),"[1]; Preemergence, 31 g ai/ha",80
same,Plant response rating (0 to 100 scale),"[1]; Preemergence, 125 g ai/ha",100
same,"Plant response rating, Nutsedge, Yellow","[2]; Postemergence, 16 g ai/ha",90
same,"Plant response rating, Nutsedge, Yellow","[2]; Postemergence, 31 g ai/ha",90
same,"Plant response rating, Nutsedge, Yellow","[2]; Postemergence, 62 g ai/ha",95
same,"Plant response rating, Nutsedge, Yellow","[2]; Postemergence, 125 g ai/ha",98
same,"Plant response rating, Nutsedge, Yellow","[2]; Preemergence, 31 g ai/ha",95
same,"Plant response rating, Nutsedge, Yellow","[2]; Preemergence, 61 g ai/ha",40
same,"Plant response rating, Nutsedge, Yellow","[2]; Preemergence, 62 g ai/ha",95
same,"Plant response rating, Nutsedge, Yellow","[2]; Preemergence, 125 g ai/ha",98
same,"Plant response rating, Galium","[3]; Postemergence, 16 g ai/ha",95
same,"Plant response rating, Galium","[3]; Postemergence, 31 g ai/ha",95
same,"Plant response rating, Galium","[3]; Postemergence, 62 g ai/ha",95
same,"Plant response rating, Galium","[3]; Postemergence, 125 g ai/ha",95
same,"Plant response rating, Galium","[3]; Preemergence, 31 g ai/ha",100
same,"Plant response rating, Galium","[3]; Preemergence, 61 g ai/ha",98
same,"Plant response rating, Galium","[3]; Preemergence, 62 g ai/ha",100
same,"Plant response rating, Galium","[3]; Preemergence, 125 g ai/ha",100
same,"Plant response rating, Velvetleaf","[4]; Postemergence, 16 g ai/ha",70
same,"Plant response rating, Velvetleaf","[4]; Postemergence, 31 g ai/ha",75
same,"Plant response rating, Velvetleaf","[4]; Postemergence, 62 g ai/ha",85
same,"Plant response rating, Velvetleaf","[4]; Postemergence, 125 g ai/ha",90
same,"Plant response rating, Velvetleaf","[4]; Preemergence, 31 g ai/ha",100
same,"Plant response rating, Velvetleaf","[4]; Preemergence, 61 g ai/ha",85
same,"Plant response rating, Velvetleaf","[4]; Preemergence, 62 g ai/ha",100
same,"Plant response rating, Velvetleaf","[4]; Preemergence, 125 g ai/ha",100
same,"Plant response rating, Barnyardgrass","[5]; Postemergence, 16 g ai/ha",55
same,"Plant response rating, Barnyardgrass","[5]; Postemergence, 31 g ai/ha",75
same,"Plant response rating, Barnyardgrass","[5]; Postemergence, 62 g ai/ha",75
same,"Plant response rating, Barnyardgrass","[5]; Postemergence, 125 g ai/ha",85
same,"Plant response rating, Barnyardgrass","[5]; Preemergence, 31 g ai/ha",85
same,"Plant response rating, Barnyardgrass","[5]; Preemergence, 61 g ai/ha",70
same,"Plant response rating, Barnyardgrass","[5]; Preemergence, 62 g ai/ha",95
same,"Plant response rating, Barnyardgrass","[5]; Preemergence, 125 g ai/ha",100
same,Plant response rating (0 to 100 scale),[6]; 31 g ai/ha,0
same,Plant response rating (0 to 100 scale),[6]; 125 g ai/ha,60
same,Plant response rating (0 to 100 scale),[7]; 31 g ai/ha,20
same,Plant response rating (0 to 100 scale),[7]; 125 g ai/ha,30
same,Plant response rating (0 to 100 scale),[8]; 31 g ai/ha,90
same,Plant response rating (0 to 100 scale),[8]; 125 g ai/ha,100
same,Plant response rating (0 to 100 scale),[9]; 31 g ai/ha,30
same,Plant response rating (0 to 100 scale),[9]; 125 g ai/ha,30
Cc1ccc2ccc(F)cc2c1-c1c(O)c(Cl)nn(C)c1=O [Cpd. No. 21],Plant response rating (0 to 100 scale),"[10]; Postemergence, 31 g ai/ha",90
same,Plant response rating (0 to 100 scale),"[10]; Postemergence, 125 g ai/ha",100
same,Plant response rating (0 to 100 scale),"[10]; Preemergence, 31 g ai/ha",70
same,Plant response rating (0 to 100 scale),"[10]; Preemergence, 125 g ai/ha",100
same,"Plant response rating, Nutsedge, Yellow","[2]; Preemergence, 31 g ai/ha",60
same,"Plant response rating, Nutsedge, Yellow","[2]; Preemergence, 61 g ai/ha",30
same,"Plant response rating, Nutsedge, Yellow","[2]; Preemergence, 62 g ai/ha",85
same,"Plant response rating, Nutsedge, Yellow","[2]; Preemergence, 125 g ai/ha",95
same,"Plant response rating, Galium","[3]; Postemergence, 16 g ai/ha",90
same,"Plant response rating, Galium","[3]; Postemergence, 31 g ai/ha",95
same,"Plant response rating, Galium","[3]; Postemergence, 62 g ai/ha",98
same,"Plant response rating, Galium","[3]; Postemergence, 125 g ai/ha",78
same,"Plant response rating, Galium","[3]; Preemergence, 31 g ai/ha",95
same,"Plant response rating, Galium","[3]; Preemergence, 61 g ai/ha",90
same,"Plant response rating, Galium","[3]; Preemergence, 62 g ai/ha",95
same,"Plant response rating, Galium","[3]; Preemergence, 125 g ai/ha",95
same,"Plant response rating, Velvetleaf","[4]; Preemergence, 31 g ai/ha",75
same,"Plant response rating, Velvetleaf","[4]; Preemergence, 61 g ai/ha",40
same,"Plant response rating, Velvetleaf","[4]; Preemergence, 62 g ai/ha",75
same,"Plant response rating, Velvetleaf","[4]; Preemergence, 125 g ai/ha",95
same,"Plant response rating, Poinsettia, Wild",[11]; 31 g ai/ha,5
same,"Plant response rating, Poinsettia, Wild",[11]; 61 g ai/ha,0
same,"Plant response rating, Poinsettia, Wild",[11]; 62 g ai/ha,10
same,"Plant response rating, Poinsettia, Wild",[11]; 125 g ai/ha,25
same,"Plant response rating, Barnyardgrass","[5]; Postemergence, 16 g ai/ha",60
same,"Plant response rating, Barnyardgrass","[5]; Postemergence, 31 g ai/ha",85
same,"Plant response rating, Barnyardgrass","[5]; Postemergence, 62 g ai/ha",90
same,"Plant response rating, Barnyardgrass","[5]; Postemergence, 125 g ai/ha",90
same,"Plant response rating, Barnyardgrass","[5]; Preemergence, 31 g ai/ha",75
same,"Plant response rating, Barnyardgrass","[5]; Preemergence, 61 g ai/ha",25
same,"Plant response rating, Barnyardgrass","[5]; Preemergence, 62 g ai/ha",85
same,"Plant response rating, Barnyardgrass","[5]; Preemergence, 125 g ai/ha",95
same,Plant response rating (0 to 100 scale),[6]; 31 g ai/ha,50
same,Plant response rating (0 to 100 scale),[6]; 125 g ai/ha,70
same,Plant response rating (0 to 100 scale),[7]; 31 g ai/ha,50
same,Plant response rating (0 to 100 scale),[7]; 125 g ai/ha,80
same,Plant response rating (0 to 100 scale),[8]; 31 g ai/ha,100
same,Plant response rating (0 to 100 scale),[8]; 125 g ai/ha,100
same,Plant response rating (0 to 100 scale),[9]; 31 g ai/ha,10
same,Plant response rating (0 to 100 scale),[9]; 125 g ai/ha,20
